Data from the supplement of paper PMC9663587.

What was measured:
Torin2 = compound: C1=CC(=CC(=C1)N2C(=O)C=CC3=CN=C4C=CC(=CC4=C32)C5=CN=C(C=C5)N)C(F)(F)F [Torin2]
AZD1775 = compound: C=CCn1c(=O)c2cnc(Nc3ccc(N4CCN(C)CC4)cc3)nc2n1-c1cccc(C(C)(C)O)n1 [AZD1775]
[1] = compound: CC(=O)Nc1cccc(-n2c(=O)n(C3CC3)c(=O)c3c(Nc4ccc(I)cc4F)n(C)c(=O)c(C)c32)c1
[2] = compound: CC(=O)c1c(C)c2cnc(Nc3ccc(N4CCNCC4)cn3)nc2n(C2CCCC2)c1=O
Ipatasertib/GDC0068 = compound: CC(C)NC[C@@H](C(=O)N1CCN(c2ncnc3c2[C@H](C)C[C@H]3O)CC1)c1ccc(Cl)cc1 [Ipatasertib/GDC0068]
INK128/MLN0128 = compound: CC(C)n1nc(-c2ccc3oc(N)nc3c2)c2c(N)ncnc21 [INK128/MLN0128]
SHP099 = compound: CC1(CCN(CC1)C2=CN=C(C(=N2)N)C3=C(C(=CC=C3)Cl)Cl)N [SHP099]
TGX221 = compound: CC1=CN2C(=O)C=C(N=C2C(=C1)C(C)NC3=CC=CC=C3)N4CCOCC4 [TGX221]
[3] = compound: CCCCOc1c(C(=O)c2c(F)cc(C)cc2F)c[nH]c2nncc1-2
[4] = compound: CCN1CCN(Cc2ccc(Nc3ncc(F)c(-c4cc(F)c5nc(C)n(C(C)C)c5c4)n3)nc2)CC1
Luminespib/NVP-AUY922 = compound: CCNC(=O)c1noc(-c2cc(C(C)C)c(O)cc2O)c1-c1ccc(CN2CCOCC2)cc1 [Luminespib/NVP-AUY922]
Volasertib/BI6727 = compound: CC[C@@H]1C(=O)N(C)c2cnc(Nc3ccc(C(=O)N[C@H]4CC[C@H](N5CCN(CC6CC6)CC5)CC4)cc3OC)nc2N1C(C)C [Volasertib/BI6727]
THZ-P1-2 = compound: CN(C)C/C=C/C(=O)NC1=CC=C(C=C1)C(=O)NC2=CC=CC(=C2)NC3=NC=NC(=C3)C4=CNC5=CC=CC=C54 [THZ-P1-2]
THZ531 = compound: CN(C)C/C=C/C(=O)Nc1ccc(C(=O)N2CCC[C@@H](Nc3ncc(Cl)c(-c4c[nH]c5ccccc45)n3)C2)cc1 [THZ531]
THZ1 = compound: CN(C)C/C=C/C(=O)Nc1ccc(C(=O)Nc2cccc(Nc3ncc(Cl)c(-c4c[nH]c5ccccc45)n3)c2)cc1 [THZ1]
BSJ-01-175 = compound: CN(C)C/C=C/C(=O)Nc1ccc(O[C@@H]2CCC[C@@H](Nc3ncc(Cl)c(-c4c[nH]c5ccccc45)n3)C2)cc1 [BSJ-01-175]
ABT-737 = compound: CN(C)CC[C@H](CSc1ccccc1)Nc1ccc(S(=O)(=O)NC(=O)c2ccc(N3CCN(Cc4ccccc4-c4ccc(Cl)cc4)CC3)cc2)cc1[N+](=O)[O-] [ABT-737]
senexin b = compound: CN1CCN(C(=O)c2ccc3cc(CCNc4ncnc5ccc(C#N)cc45)ccc3c2)CC1 [senexin b]
Saracatinib/AZD0530 = compound: CN1CCN(CCOc2cc(OC3CCOCC3)c3c(Nc4c(Cl)ccc5c4OCO5)ncnc3c2)CC1 [Saracatinib/AZD0530]
AZD2014 = compound: CNC(=O)c1cccc(-c2ccc3c(N4CCOC[C@@H]4C)nc(N4CCOC[C@@H]4C)nc3n2)c1 [AZD2014]
Rucaparib = compound: CNCc1ccc(-c2[nH]c3cc(F)cc4c3c2CCNC4=O)cc1 [Rucaparib]
[5] = compound: CNc1nc(-c2ccc3c(N)n[nH]c3c2)cc(N2C[C@@H](C(=O)NC3CCCCC3)CC[C@H]2C)n1
Cediranib/AZD2171 = compound: COc1cc2c(Oc3ccc4[nH]c(C)cc4c3F)ncnc2cc1OCCCN1CCCC1 [Cediranib/AZD2171]
Cabozantinib = compound: COc1cc2nccc(Oc3ccc(NC(=O)C4(C(=O)Nc5ccc(F)cc5)CC4)cc3)c2cc1OC [Cabozantinib]
AZD6738 = compound: C[C@@H]1COCCN1c1cc(C2([S@](C)(=N)=O)CC2)nc(-c2cc[nH]c3nccc2-3)n1 [AZD6738]
Taselisib/GDC0032 = compound: Cc1nc(-c2cn3c(n2)-c2ccc(-c4cnn(C(C)(C)C(N)=O)c4)cc2OCC3)n(C(C)C)n1 [Taselisib/GDC0032]
Alpelisib/BYL719 = compound: Cc1nc(NC(=O)N2CCC[C@H]2C(N)=O)sc1-c1ccnc(C(C)(C)C(F)(F)F)c1 [Alpelisib/BYL719]
Dasatinib = compound: Cc1nc(Nc2ncc(C(=O)Nc3c(C)cccc3Cl)s2)cc(N2CCN(CCO)CC2)n1 [Dasatinib]
AZD7762 = compound: NC(=O)Nc1cc(-c2cccc(F)c2)sc1C(=O)N[C@H]1CCCNC1 [AZD7762]
Buparlisib/NVP-BKM120 = compound: Nc1cc(C(F)(F)F)c(-c2cc(N3CCOCC3)nc(N3CCOCC3)n2)cn1 [Buparlisib/NVP-BKM120]
Vorinostat = compound: O=C(CCCCCCC(=O)Nc1ccccc1)NO [Vorinostat]
Olaparib/AZD2281 = compound: O=C(c1cc(Cc2n[nH]c(=O)c3ccccc23)ccc1F)N1CCN(C(=O)C2CC2)CC1 [Olaparib/AZD2281]
Tivantinib/ARQ197 = compound: O=C1NC(=O)[C@@H](c2cn3c4c(cccc24)CCC3)[C@@H]1c1c[nH]c2ccccc12 [Tivantinib/ARQ197]
[6] = compound: COc1ccc2c(c1)[C@]1(C[C@H]1c1ccc3c(/C=C/c4ccc(CN5C[C@@H](C)O[C@@H](C)C5)cc4)n[nH]c3c1)C(=O)N2
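Also: breast cancer and non-malignant breast epithelial cell lines, Deep Dye Drop or Dye Drop imaging, nine half-log doses, GR normalized to time-zero plates and DMSO-only controls.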

| Cell Line | GR50, 72 h (Torin2) [µM] | GR50, 72 h (AZD1775) [µM] | GR50, 72 h [1] [µM] | GR50, 72 h [2] [µM] | GR50, 72 h (Ipatasertib/GDC0068) [µM] | GR50, 72 h (INK128/MLN0128) [µM] | GR50, 72 h (SHP099) [µM] | GR50, 72 h (TGX221) [µM] | GR50, 72 h [3] [µM] | GR50, 72 h [4] [µM] | GR50, 72 h (Luminespib/NVP-AUY922) [µM] | GR50, 72 h (Volasertib/BI6727) [µM] | GR50, 72 h (THZ-P1-2) [µM] | GR50, 72 h (THZ531) [µM] | GR50, 72 h (THZ1) [µM] | GR50, 72 h (BSJ-01-175) [µM] | GR50, 72 h (ABT-737) [µM] | GR50, 72 h (senexin b) [µM] | GR50, 72 h (Saracatinib/AZD0530) [µM] | GR50, 72 h (AZD2014) [µM] | GR50, 72 h (Rucaparib) [µM] | GR50, 72 h [5] [µM] | GR50, 72 h (Cediranib/AZD2171) [µM] | GR50, 72 h (Cabozantinib) [µM] | GR50, 72 h (AZD6738) [µM] | GR50, 72 h (Taselisib/GDC0032) [µM] | GR50, 72 h (Alpelisib/BYL719) [µM] | GR50, 72 h (Dasatinib) [µM] | GR50, 72 h (AZD7762) [µM] | GR50, 72 h (Buparlisib/NVP-BKM120) [µM] | GR50, 72 h (Vorinostat) [µM] | GR50, 72 h (Olaparib/AZD2281) [µM] | GR50, 72 h (Tivantinib/ARQ197) [µM] | GR50, 72 h [6] [µM] |
| --- | --- | --- | --- | --- | --- | --- | --- | --- | --- | --- | --- | --- | --- | --- | --- | --- | --- | --- | --- | --- | --- | --- | --- | --- | --- | --- | --- | --- | --- | --- | --- | --- | --- | --- |
| HCC202 | 0.0137 | 0.051 | > 1 | > 3.16 | 3.36 | 0.0112 | > 10 | > 10 | 0.0699 | 2.43 | 0.0114 | 0.015 | 6.48 | 0.0588 | 0.0212 | 0.0167 | > 10 | > 10 | 0.475 | 0.00237 | > 10 | 0.842 | 7.85 | > 10 | 8.72 | 0.00366 | 0.465 | 0.0186 | 0.0585 | 0.431 | 3.57 | > 10 | 0.816 | – |
| MCF10A (GM) | – | 5.15 | – | – | – | – | > 10 | – | 0.355 | – | – | – | 7.51 | 0.428 | 0.0449 | 1.17 | – | > 10 | – | 0.034 | > 10 | > 10 | – | – | 6.85 | – | – | – | – | – | – | – | – | 0.00625 |
| SUM149 | 0.142 | 0.0722 | 0.0112 | – | 4.56 | 0.163 | > 10 | > 10 | 0.0163 | 0.594 | 0.00516 | 0.012 | 6.14 | 0.345 | 0.0493 | 0.0356 | 3.63 | > 10 | 2.49 | 1.92 | > 10 | > 10 | 5.18 | 5.87 | 3.87 | 2.55 | > 10 | 0.0931 | 0.0774 | 1.45 | 1.37 | 3.87 | 0.281 | 0.00332 |
| PDX1206 | – | 0.313 | – | – | – | – | > 10 | – | 0.00176 | – | – | – | > 10 | 0.0456 | 0.0255 | 0.0192 | – | 1.18 | – | < 0.001 | > 10 | 1.86 | – | – | 4.6 | – | – | – | – | – | – | – | – | 0.00708 |
| HCC1569 | 0.0105 | 0.00634 | > 1 | > 3.16 | 0.394 | 0.0132 | > 10 | > 10 | 0.0109 | 4.64 | 0.0107 | 0.0189 | 4.75 | 0.0461 | 0.0283 | 0.00923 | 1.07 | > 10 | 3.28 | – | > 10 | > 10 | > 10 | > 10 | 3.49 | 0.0552 | 5.28 | 0.0769 | 0.0361 | 0.908 | 3.31 | > 10 | 0.992 | 0.00952 |
| ZR7530 | 0.0216 | 1.91 | 0.0361 | 0.0889 | 2.4 | 0.0153 | > 10 | > 10 | 0.152 | 0.00886 | 0.00303 | 0.00621 | 1.64 | 0.0583 | 0.0259 | 0.0237 | > 10 | 1.48 | 0.533 | 0.00146 | > 10 | – | 7.57 | – | > 10 | 0.0102 | 0.246 | 0.372 | 1.12 | 0.534 | 0.844 | > 10 | 0.554 | 0.00327 |
| BT474 | 0.00998 | 0.621 | > 1 | > 3.16 | 0.521 | 0.00873 | > 10 | > 10 | > 10 | – | 0.00444 | 0.00821 | 5.82 | 0.0537 | 0.0129 | 0.0747 | 5.21 | 5.65 | 0.896 | < 0.001 | > 10 | 1.3 | > 10 | > 10 | 7.93 | 0.00452 | 0.309 | 0.0392 | 2 | 0.281 | 2.71 | > 10 | 0.551 | 0.0122 |
| HTERT_HME1 | 0.0253 | 0.302 | 0.00573 | 0.222 | > 10 | 0.0335 | > 10 | > 10 | 0.0012 | 0.199 | 0.00855 | 0.0172 | 4.1 | 0.22 | 0.00442 | 0.00582 | – | > 10 | 7.23 | 0.0169 | > 10 | > 10 | 7.57 | 3.24 | 5.78 | 0.148 | 6.04 | 0.183 | 0.259 | 1.15 | 3.02 | > 10 | 0.0344 | 0.0011 |
